Laboratory results published in patent US20250059164A1, “IRAK DEGRADERS AND USES THEREOF” (Kymera Therapeutics, Inc., priority 2023, published 2025).

Target: T1, IRAK4 (Homo sapiens, UniProt Q9NWZ3)
T1 construct: endogenous in cells; host or cells: OCI-LY10
T1 sequence (Q9NWZ3 1-460): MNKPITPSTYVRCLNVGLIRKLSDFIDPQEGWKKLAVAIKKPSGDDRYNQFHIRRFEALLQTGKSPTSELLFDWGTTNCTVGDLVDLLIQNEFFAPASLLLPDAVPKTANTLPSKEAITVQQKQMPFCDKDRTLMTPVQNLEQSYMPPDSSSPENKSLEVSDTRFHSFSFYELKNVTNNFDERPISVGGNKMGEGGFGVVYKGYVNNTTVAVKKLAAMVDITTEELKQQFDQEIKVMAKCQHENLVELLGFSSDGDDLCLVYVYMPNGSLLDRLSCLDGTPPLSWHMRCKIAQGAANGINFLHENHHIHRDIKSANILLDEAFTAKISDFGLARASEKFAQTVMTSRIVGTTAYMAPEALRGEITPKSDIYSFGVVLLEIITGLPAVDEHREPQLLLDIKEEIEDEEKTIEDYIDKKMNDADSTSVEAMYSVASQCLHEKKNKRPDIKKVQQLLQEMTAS
Experiment: IRAK4 MSD degradation in OCI-LY10
Type: cell-based
Settings: OCI-LY10 cells, 24 hrs, Meso Scale Discovery
Protocol: Degradation of IRAK4 in OCI-LY10 was quantitatively measured using Meso Scale Discovery technology. […] Compounds were then added to the assay plates with a final top concentration of 1 to 10 μM in a 1:3 dilution series with total of 8 doses. The assay plates were then incubated for 4 to 24 hours at 37° C. under 5% CO2. […] To prepare MSD assay plates (Meso Scale Discovery Catalog number L15XA-3), the plates were coated with 2 μg/mL capture antibody (mouse Anti-IRAK4 antibody [2H9], ab119942) in PBS, at 40 μL/well. […] Cell lysates were then added to MSD assay plates and the plates were incubated at room temperature for 1 hour. The plates were then washed 3 times with 150 μL/well TBST buffer and 25 μL/well primary detection antibody (rabbit Anti-IRAK4 antibody [Y279], from Abcam. Catalog number ab32511, 1 μg/mL). The assay plates were then incubated at room temperature for 1 hour, washed 3 times with 150 μL/well TBST buffer and 25 μL/well secondary detection antibody, SULFO-TAG anti-rabbit antibody were added (anti-rabbit antibody from Meso Scale Discovery, Catalog number R32AB-1, 1 μg/mL). The assay plates were then incubated at room temperature for 1 hour, washed 3 times with 150 μL/well TBST buffer, and 150 μL/well MSD reading buffer (Meso Scale Discovery catalog number R92TC-2) was added. The plates were then analyzed by a MSD reader (Meso Scale Discovery, Model Quick Plex SQ 120). The data was then analyzed by software Prism 7.0 from GraphPad and the dose-depended IRAK4 degradation were fit using a three-parameter logistic equation to calculate DC50.
The letter codes for IRAK4 DC50 include: A (<0.01 μM); B (0.01 to <0.1 μM); C (0.1 to 0.2 μM); D (>0.2 μM) and E (not tested).

DC50 [nM]	Structure (SMILES)
< 10	CN(C[C@H]1CC[C@H](c2nc3cc(C(C)(C)O)c(NC(=O)c4cncc(C(F)(F)F)n4)cc3o2)CC1)[C@H]1CCN(c2cccc3c2n(C)c(=O)n3C2CCC(=O)NC2=O)C[C@H]1F (single isomer, unassigned) [I-299]
< 10	CN(C[C@H]1CC[C@H](c2nc3cc(C(C)(C)O)c(NC(=O)c4cncc(C(F)(F)F)n4)cc3s2)CC1)[C@@H]1CCN(c2cccc3c2n(C)c(=O)n3C2CCC(=O)NC2=O)C[C@H]1F (single isomer, unassigned) [I-300]
10 to 100	Cn1c(=O)n(C2CCC(=O)NC2=O)c2cccc(C#CCN3CCN(C[C@H]4CC[C@H](n5cc(NC(=O)c6cnn7ccc(N8C[C@H]9C[C@@H]8CO9)nc67)c(C(F)F)n5)CC4)C[C@@H]3C(F)(F)F)c21 (single isomer, unassigned) [I-303]
< 10	COc1cc2nc([C@H]3CC[C@H](CN(C)[C@@H]4CCN(c5cccc6c5n(C)c(=O)n6C5CCC(=O)NC5=O)C[C@H]4F)CC3)cn2cc1NC(=O)c1cncc(C(F)(F)F)n1 (single isomer, unassigned) [I-317]
< 10	COc1cc2nc([C@H]3CC[C@H](CN(C)[C@H]4CCN(c5cccc6c5n(C)c(=O)n6C5CCC(=O)NC5=O)C[C@@H]4F)CC3)cn2cc1NC(=O)c1cncc(C(F)(F)F)n1 (single isomer, unassigned) [I-318]
10 to 100	Cn1c(=O)n(C2CCC(=O)NC2=O)c2cccc(N3CCN(C[C@H]4CC[C@H](n5cc6cc(NC(=O)c7cncc(C(F)(F)F)n7)ccc6n5)CC4)C[C@H]3C(F)(F)F)c21 (single isomer, unassigned) [I-325]
< 10	Cn1c(=O)n(C2CCC(=O)NC2=O)c2cccc([C@@H]3CCN(C[C@H]4CC[C@H](c5nc6cc(C(C)(C)O)c(NC(=O)c7cncc(C(F)(F)F)n7)cc6o5)CC4)CC3(F)F)c21 (single isomer, unassigned) [I-327]
10 to 100	Cn1c(=O)n(C2CCC(=O)NC2=O)c2cccc([C@H]3CCN(C[C@H]4CC[C@H](c5nc6cc(C(C)(C)O)c(NC(=O)c7cncc(C(F)(F)F)n7)cc6o5)CC4)CC3(F)F)c21 (single isomer, unassigned) [I-328]
< 10	COc1cc2nc([C@H]3CC[C@H](CN(C)[C@H]4CCN(c5cccc6c5n(C)c(=O)n6C5CCC(=O)NC5=O)C[C@H]4F)CC3)cn2cc1NC(=O)c1cncc(C(F)(F)F)n1 (single isomer, unassigned) [I-333]
< 10	CN(C[C@H]1CC[C@H](c2cn3cc(NC(=O)c4cncc(C(F)(F)F)n4)c(C(C)(C)O)cc3n2)CC1)[C@@H]1CCN(c2cccc3c2n(C)c(=O)n3C2CCC(=O)NC2=O)C[C@H]1F (single isomer, unassigned) [I-334]
< 10	CN(C[C@H]1CC[C@H](c2cn3cc(NC(=O)c4cncc(C(F)(F)F)n4)c(C(C)(C)O)cc3n2)CC1)[C@H]1CCN(c2cccc3c2n(C)c(=O)n3C2CCC(=O)NC2=O)C[C@@H]1F (single isomer, unassigned) [I-335]
< 10	CN(C[C@H]1CC[C@H](c2cn3cc(NC(=O)c4cncc(C(F)(F)F)n4)c(C(C)(C)O)cc3n2)CC1)[C@H]1CCN(c2cccc3c2n(C)c(=O)n3C2CCC(=O)NC2=O)C[C@H]1F (single isomer, unassigned) [I-336]
10 to 100	Cc1nn(C2CCC(=O)NC2=O)c2cccc([C@H]3CCN(C[C@H]4CC[C@H](n5cc6cc(NC(=O)c7cncc(C(F)(F)F)n7)ncc6n5)CC4)C[C@@H]3F)c12 (single isomer, unassigned) [I-341]
< 10	CN(C[C@H]1CC[C@H](c2cn3cc(NC(=O)c4cncc(C(F)(F)F)n4)c(C(C)(C)O)cc3n2)CC1)[C@@H]1CCN(c2cccc3c2n(C)c(=O)n3C2CCC(=O)NC2=O)C[C@@H]1F (single isomer, unassigned) [I-344]
> 200	Cn1c(=O)n(C2CCC(=O)NC2=O)c2ccc([C@@H]3CCN(C[C@H]4CC[C@H](n5cc6cc(NC(=O)c7cncc(C(F)(F)F)n7)ccc6n5)CC4)C[C@H]3F)cc21 (single isomer, unassigned) [I-349]
> 200	Cn1c(=O)n(C2CCC(=O)NC2=O)c2ccc([C@H]3CCN(C[C@H]4CC[C@H](n5cc6cc(NC(=O)c7cncc(C(F)(F)F)n7)ccc6n5)CC4)C[C@@H]3F)cc21 (single isomer, unassigned) [I-351]
10 to 100	Cn1nc(C2CCC(=O)NC2=O)c2cccc([C@H]3CCN(C[C@H]4CC[C@H](n5cc6cc(NC(=O)c7cncc(C(F)(F)F)n7)ncc6n5)CC4)C[C@@H]3F)c21 (single isomer, unassigned) [I-359]
< 10	Cn1c(=O)n(C2CCC(=O)NC2=O)c2ccc(F)c([C@@H]3CCN(C[C@H]4CC[C@H](n5cc6cc(NC(=O)c7cncc(C(F)(F)F)n7)ccc6n5)CC4)CC3(F)F)c21 (single isomer, unassigned) [I-376]
< 10	Cn1c(=O)n(C2CCC(=O)NC2=O)c2ccc(F)c([C@H]3CCN(C[C@H]4CC[C@H](n5cc6cc(NC(=O)c7cncc(C(F)(F)F)n7)ccc6n5)CC4)CC3(F)F)c21 (single isomer, unassigned) [I-377]
< 10	Cn1nc(C2CCC(=O)NC2=O)c2cccc([C@@H]3CCN(C[C@H]4CC[C@H](n5cc6cc(NC(=O)c7cncc(C(F)(F)F)n7)ccc6n5)CC4)CC3(F)F)c21 (single isomer, unassigned) [I-379]
< 10	Cn1nc(C2CCC(=O)NC2=O)c2cccc([C@H]3CCN(C[C@H]4CC[C@H](n5cc6cc(NC(=O)c7cncc(C(F)(F)F)n7)ccc6n5)CC4)CC3(F)F)c21 (single isomer, unassigned) [I-380]
< 10	Cn1c(=O)n([C@@H]2CCC(=O)NC2=O)c2cccc([C@@H]3CCN(C[C@H]4CC[C@H](n5cc6cc(NC(=O)c7cncc(C(F)(F)F)n7)ccc6n5)CC4)CC3(F)F)c21 (single isomer, unassigned) [I-381]
< 10	Cn1c(=O)n([C@H]2CCC(=O)NC2=O)c2cccc([C@@H]3CCN(C[C@H]4CC[C@H](n5cc6cc(NC(=O)c7cncc(C(F)(F)F)n7)ccc6n5)CC4)CC3(F)F)c21 (single isomer, unassigned) [I-385]
< 10	Cn1nc([C@H]2CCC(=O)NC2=O)c2cccc([C@@H]3CCN(C[C@H]4CC[C@H](n5cc6cc(NC(=O)c7cncc(C#N)c7)c(C(C)(C)O)cc6n5)CC4)CC3(F)F)c21 (single isomer, unassigned) [I-417]
100 to 200	O=C1CCC(Nc2cccc(N3CC(CO[C@H]4CCN(C[C@H]5CC[C@H](n6cc(NC(=O)c7cnn8ccc(N9C[C@H]%10C[C@@H]9CO%10)nc78)c(C(F)F)n6)CC5)C[C@@H]4F)C3)c2)C(=O)N1 (some centres unmarked) [I-1]
< 10	CN(C[C@H]1CC[C@H](n2cc3cc(NC(=O)c4cccc(C(F)(F)F)n4)c(C(C)(C)O)cc3n2)CC1)[C@@H]1CCN(c2cccc3c2n(C)c(=O)n3C2CCC(=O)NC2=O)C[C@H]1F (some centres unmarked) [I-2]
> 200	CN1C(=O)CCC(n2c(=O)n(C)c3c(N4CC(N5CCN([C@H]6CC[C@H](n7cc(NC(=O)c8cnn9ccc(N%10C[C@H]%11C[C@@H]%10CO%11)nc89)c(C(F)F)n7)CC6)CC5)C4)c(F)ccc32)C1=O (some centres unmarked) [I-3]
10 to 100	O=C1CCC(Nc2cccc(N3CC(CO[C@@H]4CCN(C[C@H]5CC[C@H](n6cc(NC(=O)c7cnn8ccc(N9C[C@H]%10C[C@@H]9CO%10)nc78)c(C(F)F)n6)CC5)C[C@@H]4F)C3)c2)C(=O)N1 (some centres unmarked) [I-5]
< 10	Cn1c(=O)n(C2CCC(=O)NC2=O)c2cccc([C@@H]3CCN(C[C@H]4CC[C@H](n5cc6cc(NC(=O)c7cccc(C(F)(F)F)n7)c(C(C)(C)O)cc6n5)CC4)C[C@H]3F)c21 (some centres unmarked) [I-7]
